From patent US11180767B2, “Protease deficient filamentous fungal cells and methods of use thereof” (GLYKOS FINLAND OY, priority 2012, dated 2021)

Columns and labels:
[1] = system: proteases in supernatant from the 6-fold protease deletion strain M400; test: Protease stability of proteins spiked into supernatant of the 6-fold protease deletion strain; type: biochemical, Trichoderma reesei; details: M400 supernatant pH 4.2, 20 hours, 37°C, 0.05 μg/μl
Description: The protease stability of the model proteins IGF1, hGH, and IFNα2b were analyzed by spiking them into supernatant from the 6-fold protease deletion strain (Δpep1Δtsp1Δslp1Δgap1Δgap2Δpep4) M400. The supernatant was collected from a large shake flask culture CAH15. The undiluted supernatant from the shake flask cultivation CAH15 was incubated with the purified model proteins with and without pepstatin A (50 μM) and SBTI (0.2 mg/ml) inhibitors for 20 hours at 37° C. The 5 day culture supernatant pH was around 4.2. The reaction containing 0.05 μg μl of model protein was sampled after 20 hours. 50 mM sodium citrate pH 4.0 spiked with model proteins (0.05 g 1) was used as a buffer control.
From each reaction 10 μl was loaded into an 18% SDS PAGE gel and run for 30 minutes at 200 V. The proteins in the gel were then transferred to nitrocellulose for immunoblotting. The nitrocellulose membrane was blocked for 1 hour at room temperature with 5% milk in TBST buffer. The individual blots were probed with their specific primary antibody to detect the appropriate model protein for 1 hour at room temperature on a shaker. The mouse anti-IGF1 antibody (R&D systems #mab291) was used at 2 μg/ml diluted in TBST. The mouse anti-rhGH antibody (Abeam #ab51232) was used at 2 μg/ml diluted in TBST. The mouse anti-IFNα2b antibody (Abeam #ab9386) was used at 1 μg/ml diluted in TBST. After briefly washing the blot membranes with TBST, the secondary antibody was added for 1 hour at room temperature shaking. The secondary goat anti-mouse AP conjugated antibody (Biorad #170-6520) was diluted 1:10,000 in TBST.
This same spiking experiment as was done with MAB01 to investigate its stability in the 6 protease deletion supernatant with and without inhibitors (FIG. 43). Samples were taken as described above and immunoblotted with an anti-heavy chain AP conjugated antibody (Sigma #A3188). […] There was no obvious benefit having used inhibitors. The antibody was stable in this pH 4.2 supernatant. […]

[2] = system: aspartic and glutamic protease; test: MAB01 heavy chain degradation by SIP purified proteases with and without SIP inhibitor peptide; type: biochemical, Trichoderma reesei; details: overnight 37°C, pH 4.0 and pH 5.5
Description: Several additional aspartic proteases were isolated from the T. reesei M277 triple protease deletion strain (pep1, tsp1, slp1). […] The M277 deletion strain was generated as described in Example 4 below. The strain was grown in Trichoderma minimal medium supplemented with 20 g/l spent grain extract, 60 g/l lactose, and 9 g/l casamino acids at pH 5.5 and 28° C. The aspartic proteases were isolated by affinity purification using the SIP peptide (Ac-Phe-Lys-Phe-(AHPPA)-Leu-Arg-NH2) (Kataoka Y. et al. 2005 FEBS Letters 579, pp 2991-2994). The SIP peptide was conjugated to NHS activated agarose resin (Pierce #26196) using the protocol provided by the manufacturer. The SIP affinity resin was used to purify proteases. Fermentation supernatant (15 ml) from the T. reesei M277 strain was then used to batch bind proteases to the resin in 35 ml buffer containing 50 mM sodium acetate, 0.2 M NaCl, pH 3.0 (from fermentation conditions pH 5.5; 28° C.; 9 g/l casaminoacids; 20 g/L spent grain extract, 60 g/L lactose). The column was washed with the same binding buffer and bound protein removed with elution buffer (50 mM Tris-HCL, 1 M NaCl, pH 8.5). […]
The SIP purified proteases were then tested for their ability to degrade the MAB01 antibody heavy chain. […] The collected samples were analyzed by immunoblotting with an anti-IgG heavy chain antibody AP conjugate (Sigma A3188) diluted 1:30,000 in TBST. […]

[3] = system: SIP purified proteases (PEP2, PEP3, PEP4, PEP5, GAP1, SLP2); test: Protease activity of SIP purified fractions against casein with inhibitors (EnzChek); type: biochemical, Trichoderma reesei; details: SIP, LIP, pepstatin A 60 μM; SBTI 200 μg/ml; pH 5.5
Description: Protease activity was then tested against casein both in the presence and absence of protease inhibitors. Protease activity against casein was tested using the EnzChek protease assay kit (Molecular probes #E6638, green fluorescent casein substrate). The working stock solution was prepared by diluting the stock to 10 μg ml in 50 mM sodium citrate, pH 5.5. The purified protease fractions (10 μl) were diluted with […] of sodium citrate, pH 5.5. 100 μl of the diluted substrate was combined with the diluted protease fractions in a 96 well sample plate. The plate was then covered and kept at 37° C. for one to three hours. Fluorescence readings were taken at one, two, and three hours with a Varioskan fluorescent plate reader (Thermo Scientific) using 485 nm excitation and 530 nm emission.
The SIP inhibitor peptide, pepstatin A, LIP peptide, SBTI, and chymostatin were used as inhibitors. […] SIP, LIP, and pepstatin A were used at a concentration of 60 μM, and SBTI was used at a concentration of 200 μg/ml.

[4] = system: M369 human growth hormone strain; test: hGH production in 24 well cultures with inhibitors and supplements; type: cell-based, Trichoderma reesei; details: 24 well culture, pH 4.5, day 4 immunoblot
Description: To evaluate what inhibitors would best stabilize production of hGH, 24 well cultures of these strains were performed. The M369 human growth hormone strain (Δpep1Δtsp1Δslp1Δgap1Δgap2) was grown along with single components or with combinations of the following: trypsin and subtilisin inhibitor SBTI, the acidic protease inhibitor peptide SIP, the acidic protease inhibitor peptide LIP, the aspartic protease inhibitor pepstatin A free peptide, pepstatin A immobilized to agarose beads, the trypsin and subtilisin inhibitor BBI from lima bean, the […] chymostatin, and BSA. Three independent wells were chosen for control wells where no inhibitors or supplements were added. These two strains were grown in 3 ml of TrMM with diammonium citrate without ammonium sulfate, 100 mM PIPPS, 20 g/L spent grain extract, 40 g/L lactose adjusted to pH 4.5. The 24 well plates were shaken at 800 rpm, 85% humidity, and 28° C. The cultures were grown for 6 days and covered with an air permeable membrane.
Inhibitors were added first on day 1 and then daily beginning on day 3. 100 μl samples were taken from the culture wells beginning on day 3. The mycelium was spun down for 5 minutes at 13 k and the supernatant collected. From the culture supernatant 12 μl was loaded in a 4-20% SDS PAGE gel and immunoblotting made on nitrocellulose with mouse anti-hGH antibody (2 μg/ml) and goat anti-mouse IgG AP conjugated secondary antibody diluted 1:10,000 in TBST.
Estimating the expression levels relative to the 200 ng control sample, the control wells produced between 3-6 mg/L of hGH, the BSA (0.25%)/SIP (50 μM)/8BTI (0.2 mg/ml) treatment produced 24.5 mg/L, the SIP (50 μM)/8BTI (0.2 mg/ml) treatment produced 26.6 mg/L, and the pepstatin A beads/SBTI (0.2 mg/ml) addition yielded 24.5 mg/L of hGH. Therefore, using a combination of inhibitors and additives worked best increasing the production levels by at least 4-fold. The critical parameter was to include an aspartic protease inhibitor into the mix.

[5] = system: serine proteases; test: IgG degradation by aminobenzamidine purified serine protease fraction F4 with and without PMSF; type: biochemical, Trichoderma reesei; details: PMSF 5 mM; pH 5.5, 37°C, 20 hours
Description: Serine proteases comprise a major family of proteases that have been identified as antibody degrading enzymes. Accordingly, serine proteases were purified from Trichoderma supernatant. The serine proteases were first affinity purified from fermentation culture supernatants with a p-aminobenzamidine sepharose 4 fast flow resin (GE healthcare #17-5123-10). 15 ml of the fermentation culture supernatant was batch bound to the resin in 35 ml of binding buffer (0.05 M Tris-HCL, 0.5 M NaCl, pH 7.4). After packing and washing the column with the same binding buffer, the column was eluted with 0.05 M glycine, pH 3.0. The fractions were then neutralized with 1M Tris HCL, pH 8.8.
In total 1.7 mg of protein was purified from the affinity column. When the peak fractions were run on a 4-15% SDS-PAGE gel, several major bands (˜110 kD, 53 kD, 39 kD, 29 kD) and many more minor bands were seen. The peak fraction protein mixture (F4) was then tested for protease activity by incubated a sample of the F4 with human IgG1 in sodium citrate buffer (50 mM, pH 5.5) at 37° C. for 20 hours. The samples were incubated both in the presence and absence of the serine protease inhibitor PMSF (5 mM). The incubated samples were then analyzed by immunoblotting with an anti-IgG heavy chain AP conjugate antibody (Sigma #A3188) and an anti-IgG light chain AP conjugate antibody (Sigma #A3812) diluted 1:30,000 in TBST.

## IGF1: insulin-like growth factor 1, model protein
[1]
  stability of model protein in supernatant without inhibitors: the majority appeared to be degraded

## Ac-Phe-Lys-Phe-(AHPPA)-Leu-Arg-NH2 (FKFXLR; HELM PEPTIDE1{[ac].F.K.F.[O=C(C[C@H](O)[C@H](Cc1ccccc1)N[*:1])[*:2]].L.R.[am]}$$$$V2.0; SMILES CC(=O)N[C@@H](Cc1ccccc1)C(=O)N[C@@H](CCCCN)C(=O)N[C@@H](Cc1ccccc1)C(=O)N[C@@H](Cc1ccccc1)[C@@H](O)CC(=O)N[C@@H](CC(C)C)C(=O)N[C@@H](CCCNC(=N)N)C(N)=O) [SIP peptide]
[2]
  aspartic and glutamic protease activities against MAB01 heavy chain: inhibited
[3]
  proteases inhibited: inhibited both aspartic and glutamic proteases
[4]
  effect on hGH production: noticeable increase in hGH amount

## O=S(=O)(F)Cc1ccccc1 [PMSF]
[5]
  IgG degradation by F4 serine protease fraction: able to inhibit most of the degradation

## hGH: human growth hormone, model protein
[1]
  stability of model protein in supernatant without inhibitors: the majority appeared to be degraded
